Test results published in US20030082610A1, “Use of a gene change in gene GNB3 coding for the B3 subunit of human G proteins” (SniP Biotech GmbH & Co. KG, priority 2001, published 2003).

Test: placebo-controlled clinical study on the gene-dependent (GNB3 C825T) effectiveness of Sibutramine for weight reduction
Format: in vivo, human
Experimental: A placebo-controlled clinical study on the gene-dependent effectiveness of Sibutramine was carried out. This study included 105 patients with a body-mass index between 30 and 40 kg/m^2. All patients received a reduced calorie diet of maximum 1500-2000 kcal per day. Moreover the patients were urged to increase their physical activity and for example to walk at least 30 minutes a day at an increased pace. Forty nine patients received 15 mg Sibutramine daily to support weight reduction, while 56 patients received a placebo. The therapy was continued for 54 weeks. The body weight and body size of all patients were known at the beginning of the study and after 54 weeks of therapy. The end points of the study were the weight loss after 54 weeks, the number of patients with at least 5% reduction in body weight, and the number of patients with at least 10% reduction of body weight.
From all patients, DNA was isolated from a blood sample in order to analyze the C825T allele status in gene GNB3. Genotyping was done by means of PCR reaction and restriction analysis in processes familiar to one skilled in the area. The study results are shown in the graph of FIG. 1. In the placebo group, the average weight reduction was 5.3±7.3 kg, while the weight loss in the group treated with Sibutramine was 10.0±8.7 kg. This difference was statistically significant (p=0.036). FIG. 1 illustrates the genotype-dependent weight loss. In the placebo group, the average weight reduction was 9.1±2.8 kg for the TT genotype, 7.4±1.5 kg for the TC genotype, but only 2.8±1.1 kg for the CC genotype. This difference was statistically significant (One-way ANOVA, P=0.03).

For `CC(C)CC(N(C)C)C1(c2ccc(Cl)cc2)CCC1` (stereo not shown) [Sibutramine], the “odds ratio (OR) for a 5% weight loss, Sibutramine compared to placebo” value (825T allele carriers, 54 weeks, p=0.26, not significant) was 1.8, the “odds ratio (OR) for a 10% weight loss, Sibutramine compared to placebo” value (825T allele carriers, 54 weeks, p=0.4) was 1.6 and the weight loss (CC genotype (825C allele carrier), 15 mg Sibutramine daily, 54 weeks) was 9.9 kg. The “odds ratio (OR) for a 5% weight reduction, long-term, Sibutramine versus placebo” value (CC genotype, re-examined 2 years after the end of the study, p=0.0358) was 4.4, the “further weight loss compared to placebo” value (TT/TC genotype (825T allele carriers), 15 mg Sibutramine daily, 54 weeks) was “no further weight loss compared to the placebo” and the “weight loss (average weight reduction)” value (all genotypes, patients BMI 30-40 kg/m^2, 15 mg Sibutramine daily plus reduced calorie diet and physical activity, after 54 weeks) was 10.0 ± 8.7 kg. The “effect of Sibutramine compared to placebo on weight loss” value (carriers of the 3882A allele and the 5249G allele) was “same favorable results as for the 825C allele carrier”, the “odds ratio (OR) for a 5% weight reduction, long-term, Sibutramine versus placebo” value (genotype not printed (contrasted with CC), 2 years after the end of the study, p 0.2139, not significant) was 2.333 and the “odds ratio (OR) for losing more than 5% body weight, Sibutramine compared to placebo” value (homozygotic 825C allele carriers (CC genotype), 54 weeks, p 0.0002) was 12.0. The “odds ratio (OR) for the 10% weight reduction, Sibutramine compared to placebo” value (homozygotic 825C allele carriers (CC genotype), 54 weeks, p 0.0028) was 9.69.
